# Measurements taken from ChEMBL document CHEMBL5543084, “Development of cannabidiol derivatives as potent broad-spectrum antibacterial agents with membrane-disruptive mechanism” (Eur J Med Chem, 2024).
# Active and inactive are the calls of the source. The calls are words filed in the database; no cut-off is given here.
# Legend:
# [1] = Toxicity in C57BL6 mouse assessed as corneal damage treated in eyeballs 4 times in a day for 3 consecutive days; conditions: in vivo, topical_or_ocular
# Staphylococcus aureus [2] = experiment: Bactericidal activity against methicillin-resistant Staphylococcus aureus NCTC 10442 assessed as down regulation of other glycan degradation gene expression at 4 times of MIC concentration measured after 90 mins incubation by RNA sequencing (RNA-seq) study; assay type: functional, organism-based
# Escherichia coli [3] = experiment: Antibacterial activity against Escherichia coli ATCC 25922 assessed as inhibition of bacterial growth incubated for 24 hrs in presence of 2.5 mM Ca2+ by broth dilution method; assay type: functional
# Lipoteichoic acid = experiment: Displacement of BODIPY-TR-cadaverine from Bacillus subtilis lipoteichoic acid (LTA) assessed as increase in fluorescence intensity by fluorescence spectrophotometric analysis
# Escherichia coli [4] = experiment: Bactericidal activity against Escherichia coli ATCC 25922 assessed as change in cell death associated gene expression by measuring down-regulation of glycosyltransferase family 2 (D1792_RS06385) gene expression at 4 times of MIC concentration measured after 90 mins incubation by RNA sequencing (RNA-seq) study; assay type: functional, organism-based
# Staphylococcus aureus [5] = experiment: Antibacterial activity against methicillin-resistant Staphylococcus aureus NCTC 10442 assessed as inhibition of bacterial growth incubated for 24 hrs in presence of 1 mM Mg2+ by broth dilution method; assay type: functional
# Staphylococcus aureus [6] = experiment: Bactericidal activity against methicillin-resistant Staphylococcus aureus NCTC 10442 assessed as bacterial killing at 4 time of MIC concentration incubated for 2 hrs by time-kill assay; assay type: functional
# Staphylococcus aureus [7] = experiment: Bactericidal activity against methicillin-resistant Staphylococcus aureus NCTC 10442 assessed as change in cell death associated gene expression by measuring down-regulation of biofilm formation plfA (DX983_RS01360) and plfB (DX983_RS01355) gene expression at 4 times of MIC concentration measured after 90 mins incubation by RNA sequencing (RNA-seq) study; assay type: functional, organism-based
# Klebsiella pneumoniae [8] = experiment: Antibacterial activity against Klebsiella pneumoniae ATCC 10031 assessed as inhibition of bacterial growth incubated for 24 hrs by broth dilution method; assay type: functional
# [9] = Cytotoxicity against mouse fibroblast NCTC clone 929 cells assessed as viable cells at […] microg/ml incubated for 24 hrs by CCK-8 assay; assay type: toxicity, cell-based; conditions: NCTC clone 929 (L929) fibroblast cells, dose 1.56 µg/ml, read-out: Activity
# Staphylococcus aureus [10] = experiment: Bactericidal activity against methicillin-resistant Staphylococcus aureus NCTC 10442 assessed as change in cell death associated gene expression by measuring up-regulation of clfB, DX983_RS14825) and DX983_RS14235 gene expression at 4 times of MIC concentration measured after 90 mins incubation by RNA sequencing (RNA-seq) study; assay type: functional, organism-based
# Staphylococcus aureus [11] = experiment: Bactericidal activity against methicillin-resistant Staphylococcus aureus NCTC 10442 assessed as bacterial reduction at 8 time of MIC concentration incubated for 0.5 hrs by time-kill assay; assay type: functional
# Staphylococcus aureus [12] = experiment: Bactericidal activity against methicillin-resistant Staphylococcus aureus NCTC 10442 assessed as change in cell death associated gene expression by measuring down-regulation of quorum sensing gene DX983_RS05700 gene expression at 4 times of MIC concentration measured after 90 mins incubation by RNA sequencing (RNA-seq) study; assay type: functional, organism-based
# [13] = Cytotoxicity against human HepG2 cells assessed as viable cells at 12.5 microg/ml incubated for 24 hrs by CCK-8 assay; assay type: toxicity, cell-based; conditions: at 12.5 µg/mL, read-out: Activity
# Escherichia coli [14] = experiment: Bactericidal activity against Escherichia coli ATCC 25922 assessed as bacterial reduction at 4 time of MIC concentration incubated for 2 hrs by time-kill assay; assay type: functional
# Escherichia coli [15] = experiment: Bactericidal activity against Escherichia coli ATCC 25922 assessed as change in cell death associated gene expression by measuring down-regulation of outer membrane lipoprotein-coding gene (slp, D1792_ RS14130; porin, D1792_RS05555) gene expression at 4 times of MIC concentration measured after 90 mins incubation by RNA sequencing (RNA-seq) study; assay type: functional, organism-based
# Klebsiella pneumoniae [16] = experiment: Antibacterial activity against Klebsiella pneumoniae ATCC 10031 assessed as inhibition of bacterial growth incubated for 24 hrs in presence of 20 uM Fe3+ by broth dilution method; assay type: functional
# Escherichia coli [17] = experiment: Antibacterial activity against Escherichia coli ATCC 25922 assessed as inhibition of bacterial growth incubated for 24 hrs by broth dilution method; assay type: functional
# Staphylococcus aureus [18] = experiment: Bactericidal activity against methicillin-resistant Staphylococcus aureus NCTC 10442 assessed as change in metabolic stress associated gene expression by measuring down-regulation of glucosaminidase domain-containing protein (atl, DX983_RS02250) gene expression at 4 times of MIC concentration measured after 90 mins incubation by RNA sequencing (RNA-seq) study; assay type: functional, organism-based; conditions: NTCC 10442
# Staphylococcus aureus [19] = experiment: Bactericidal activity against methicillin-resistant Staphylococcus aureus NCTC 10442 assessed as up regulation of phosphonate and phosphinate metabolism gene expression at 4 times of MIC concentration measured after 90 mins incubation by RNA sequencing (RNA-seq) study; assay type: functional, organism-based
# Staphylococcus aureus [20] = experiment: Antibacterial activity against methicillin-resistant Staphylococcus aureus NCTC 10442 assessed as inhibition of bacterial growth incubated for 24 hrs in presence of 4.5 mM K+ by broth dilution method; assay type: functional
# Staphylococcus aureus [21] = experiment: Drug resistance, ratio of MIC for Staphylococcus aureus NCTC 10442 after 21 passages to MIC for Staphylococcus aureus NCTC 10442 during first exposure; assay type: functional
# Escherichia coli [22] = experiment: Antibacterial activity against Escherichia coli ATCC 25922 assessed as inhibition of bacterial growth incubated for 24 hrs in presence of 19 uM Zn2+ by broth dilution method; assay type: functional
# Staphylococcus aureus [23] = experiment: In vivo antibacterial activity against Staphylococcus aureus ATCC 29213 infected C57BL6 mouse corneal infection model assessed as reduction in bacterial burden at 3 mg/ml, TOP 4 times in a day for 3 consecutive days; assay type: functional; conditions: time 3 day
# Escherichia coli [24] = experiment: Antibacterial activity against Escherichia coli ATCC 25922 assessed as inhibition of bacterial growth incubated for 24 hrs in presence of 20 uM Fe3+ by broth dilution method; assay type: functional
# Escherichia coli [25] = experiment: Bactericidal activity against Escherichia coli ATCC 25922 assessed as down regulation of benzoate degradation gene expression at 4 times of MIC concentration measured after 90 mins incubation by RNA sequencing (RNA-seq) study; assay type: functional, organism-based
# Staphylococcus aureus [26] = experiment: Antibacterial activity against Staphylococcus aureus ATCC 29213 assessed as inhibition of bacterial growth incubated for 24 hrs in presence of 140 mM Na+ by broth dilution method; assay type: functional
# [27] = Cytotoxicity against mouse fibroblast NCTC clone 929 cells assessed as viable cells at 12.5 microg/ml incubated for 24 hrs by CCK-8 assay; assay type: toxicity, cell-based; conditions: NCTC clone 929 (L929) fibroblast cells, at 12.5 µg/mL, read-out: Activity
# Staphylococcus aureus [28] = experiment: Antibacterial activity against Staphylococcus aureus ATCC 29213 assessed as inhibition of bacterial growth incubated for 24 hrs by broth dilution method; assay type: functional
# Escherichia coli [29] = experiment: Bactericidal activity against Escherichia coli ATCC 25922 assessed as down-regulation of galactose metabolic process (GO:0006012) at 4 times of MIC concentration measured after 90 mins incubation by RNA sequencing (RNA-seq) study; assay type: functional, organism-based
# [30] = Hemolytic activity against rabbit blood cells incubated for 1 hr relative to control; assay type: toxicity, cell-based, Oryctolagus cuniculus, Erythrocyte; conditions: rabbit blood cells (erythrocytes)
smiles,measurement,setting,value
C=C(C)[C@@H]1CCC(C)=C[C@H]1c1c(OCCCNC(=N)N)cc(CCCCC)cc1OCCCNC(=N)N,Activity,[1],Non-Toxic
same,Activity,Staphylococcus aureus [2],Active
same,MIC,Escherichia coli [3],3.12 µg/mL
same,Activity,Lipoteichoic acid,Dose-Dependent Effect
same,Activity,Escherichia coli [4],Active
same,MIC,Staphylococcus aureus [5],0.39 µg/mL
same,inhibition (INH),Staphylococcus aureus [6],99.9%
same,Activity,Staphylococcus aureus [7],Active
same,MIC,Klebsiella pneumoniae [8],1.56 µg/mL
same,"viability at 24 h, 1.56 microg/ml",[9],94%
same,Activity,Staphylococcus aureus [10],Active
same,Activity,Staphylococcus aureus [11],3 log10FFU/ml
same,Activity,Staphylococcus aureus [12],Active
same,"viability at 24 h, 12.5 microg/ml",[13],91.3%
same,Activity,Escherichia coli [14],5.52 log10FFU/ml
same,Activity,Escherichia coli [15],Active
same,MIC,Klebsiella pneumoniae [16],3.12 µg/mL
same,MIC,Escherichia coli [17],3.12 µg/mL
same,Activity,Staphylococcus aureus [18],Active
same,Activity,Staphylococcus aureus [19],Active
same,MIC,Staphylococcus aureus [20],0.39 µg/mL
same,Ratio,Staphylococcus aureus [21],4
same,MIC,Escherichia coli [22],0.78 µg/mL
same,Activity,Staphylococcus aureus [23],6.99 log10FFU/ml
same,MIC,Escherichia coli [24],1.56 µg/mL
same,Activity,Escherichia coli [25],Active
same,MIC,Staphylococcus aureus [26],0.78 µg/mL
same,"viability at 24 h, 12.5 microg/ml",[27],80.4%
same,MIC,Staphylococcus aureus [28],0.78 µg/mL
same,Activity,Escherichia coli [29],Active
same,HC50 at 1 h,[30],> 200 µg/mL
